Measurements: patent US4900757A, “Hypocholesterolemic and antiatherosclerotic uses of bix(3,5-di-tertiary-butyl-4-hydroxyphenylthio)methane” (Merrell Dow Pharmaceuticals Inc., priority 1988, dated 1990)

Legend:
[1] = system: mice; details: cited from earlier work
[2] = system: human LDL; experiment: Inhibition of LDL peroxidation (cupric sulfate, thiobarbituric acid assay; Example 3); details: ratio of ID50, in words
[3] = system: Watanabe heritable hyperlipidemic (WHHL) rabbit; experiment: Antiatherosclerotic and hypocholesterolemic effects in the Watanabe Heritable Hyperlipidemic rabbit (Example 2); format: in vivo; details: for Aortic Lesions, as a percent of control group / HDL Protein, as a percent of control group / LDL Cholesterol, as a percent of control group / Plasma Cholesterol, as a percent of control group: mean vs respective control group
Source text: Divide Watanabe Heritable Hyperlipidemic rabbits (WHHL), 13 to 15 weeks of age, into two treatment groups of 4 to 5 rabbits each. To one treatment group feed standard rabbit chow [Control Group], and to the other group feed standard rabbit chow containing the test compound (1% by weight) [Treatment Group]. In one experiment, probucol is the active treatment [Treatment Group A]. In another experiment, bis(3,5-di-tertiarybutyl-4-hydroxyphenylthio)methane is the active treatment [Treatment Group B].
After 12 weeks of treatment, sacrifice the study animals and take plasma and aorta samples. Determine for each study animal the extent of the atherosclerotic lesions of the aorta by the method of Badimon et al. [Atherosclerosis 61, 57 (1986)]. Determine for each study animal plasma cholesterol concentrations by an enzymatic method using a DACOS analyzer (Coulter Electronics Inc., Hialeah, Florida, USA). Isolate plasma lipoproteins by sequential ultracentrifugation and determine LDL and HDL cholesterol and protein by the method of Mao et al. [Biochemistry 14, 4127 (1975)].

[4] = system: LDL; details: in vitro; in words; cited from earlier work
[5] = system: LDL; details: in words; cited from earlier work
[6] = system: WHHL rabbit; details: in words; cited from earlier work
[7] = 1% (w/w) in feed, 12 weeks, in words

SMILES	reduction in the blood cholesterol of mice, in words ([1]; comparable treatment (to 2 weeks probucol))	effectiveness in inhibiting peroxidation of human LDL relative to probucol [2]	Aortic Lesions, as a percent of control group ([3]; 1% (w/w) in feed, 12 weeks) [%]	HDL Protein, as a percent of control group ([3]; 1% (w/w) in feed, 12 weeks)	LDL Cholesterol, as a percent of control group ([3]; 1% (w/w) in feed, 12 weeks) [%]	Plasma Cholesterol, as a percent of control group ([3]; 1% (w/w) in feed, 12 weeks) [%]	amount of HDL in the blood, as measured by HDL protein [3, 7]	reduction of LDL cholesterol compared with probucol [3, 7]	reduction of aortic lesions compared with probucol [3, 7]	reduction of plasma cholesterol compared with probucol [3, 7]	progression of atherosclerosis in the WHHL rabbit ([3]; in words)	serum cholesterol in the WHHL rabbit ([3]; in words)	reduction in the blood cholesterol of mice ([1]; 2 week treatment) [%]	inhibition of oxidative modification of LDL by cupric ions [4]	inhibition of oxidative modification of LDL by endothelial cells [5]	preventing the progression of atherosclerosis in WHHL rabbit [6]
CC(C)(C)c1cc(SCSc2cc(C(C)(C)C)c(O)c(C(C)(C)C)c2)cc(C(C)(C)C)c1O	no reduction	over twice as effective	-38	+8%	-35	-20	increased	to a greater extent than probucol	to a greater extent than probucol	to a greater extent than probucol	prevents the progression of atherosclerosis	reduces serum cholesterol				
CC(C)(Sc1cc(C(C)(C)C)c(O)c(C(C)(C)C)c1)Sc1cc(C(C)(C)C)c(O)c(C(C)(C)C)c1 [Probucol, 2,2'-bis(3,5-di-tertiary-butyl-4-hydroxyphenylthio)propane, reference compound]			-33	-21%	-15	-12	decreased						59	inhibits the oxidative modification of LDL	inhibits the oxidative modification of LDL	effective in preventing the progression of atherosclerosis
